Results reported in ChEMBL document CHEMBL6092179, “Discovery of CLKs inhibitors for the treatment of non-small cell lung cancer” (Eur J Med Chem, 2024).
pIC50: −log10 of the molar value. The source made the active and inactive calls. The rule behind the calls is not given here.

Experiments:
NCI-H1299 [1] = test: Induction of apoptosis in human NCI-H1299 cells assessed as late apoptotic cells at 0.5 uM incubated for 24 hrs by annexin V-FITC/PI staining based flow cytometric analysis (reference value: 2.23 %); type: functional
[2] = target: T1, Dual specificity protein kinase CLK1 (Homo sapiens, UniProt P49759); test: Inhibition of CLK in human NCI-H1299 cells assessed as downregulation of SRSF5 phosphorylation at 0.1 to 1 uM incubated for 1 hr by Western blotting analysis; type: cell-based; details: dose 0.1-1 µM
NCI-H1299 [3] = test: Induction of autophagy in human NCI-H1299 cells assessed as downregulation of p62 expression at 0.1 to 1 uM incubated for 48 hrs by Western blotting analysis; type: functional, cell-based; details: dose 0.1-1 µM
NCI-H1299 [4] = test: Inhibition of Wnt pathway in human NCI-H1299 cells assessed as downregulation of Axin2 expression at 0.1 to 1 uM incubated for 48 hrs by Western blotting analysis; type: cell-based; details: dose 0.1-1 µM
NCI-H1299 [5] = test: Induction of apoptosis in human NCI-H1299 cells assessed as early apoptotic cells at 1 uM incubated for 24 hrs by annexin V-FITC/PI staining based flow cytometric analysis (reference value: 0.49 %); type: functional
NCI-H1299 [6] = test: Induction of apoptosis in human NCI-H1299 cells assessed as late apoptotic cells at 1 uM incubated for 24 hrs by annexin V-FITC/PI staining based flow cytometric analysis (reference value: 2.23 %); type: functional
NCI-H1299 [7] = test: Inhibition of Wnt pathway in human NCI-H1299 cells assessed as downregulation of c-Myc expression at 0.1 to 1 uM incubated for 48 hrs by Western blotting analysis; type: cell-based; details: dose 0.1-1 µM
NCI-H1299 [8] = test: Induction of autophagy in human NCI-H1299 cells assessed as effect on LC3I protein expression at 0.1 to 1 uM incubated for 48 hrs by Western blotting analysis; type: functional, cell-based; details: dose 0.1-1 µM
NCI-H1299 [9] = test: Induction of apoptosis in human NCI-H1299 cells assessed as viable cells at 0.5 uM incubated for 24 hrs by annexin V-FITC/PI staining based flow cytometric analysis (reference value: 95 %); type: functional; details: read-out: Activity
NCI-H1299 [10] = test: Induction of apoptosis in human NCI-H1299 cells assessed as necrotic cells at 0.5 uM incubated for 24 hrs by annexin V-FITC/PI staining based flow cytometric analysis (reference value: 2.28 %); type: functional
[11] = target: T1, Dual specificity protein kinase CLK1; test: Inhibition of CLK in human NCI-H1299 cells assessed as downregulation of SRSF4 phosphorylation at 0.1 to 1 uM incubated for 1 hr by Western blotting analysis; type: cell-based; details: dose 0.1-1 µM
NCI-H1299 [12] = test: Induction of apoptosis in human NCI-H1299 cells assessed as necrotic cells at 1 uM incubated for 24 hrs by annexin V-FITC/PI staining based flow cytometric analysis (reference value: 2.28 %); type: functional
[13] = system: Osimertinib-resistant NCI-H1975 cell; test: cells; details: Homo sapiens, 96 h
Description: Antiproliferative activity against human Osimertinib-resistant NCI-H1975 cell cultured as 3D spheroids assessed as inhibition of cell growth incubated for 96 hrs by CellTiter-Glo luminescence assay

[14] = target: Dual specificity protein kinase CLK4 (Homo sapiens, UniProt Q9HAZ1); test: Inhibition of CLK4 (unknown origin) by ADP-Glo assay
NCI-H1299 [15] = test: Induction of apoptosis in human NCI-H1299 cells assessed as viable cells at 0.1 uM incubated for 24 hrs by annexin V-FITC/PI staining based flow cytometric analysis (reference value: 95 %); type: functional; details: read-out: Activity
NCI-H1299 [16] = test: Induction of apoptosis in human NCI-H1299 cells assessed as downregulation of BCL-2 expression at 0.1 to 1 uM incubated for 48 hrs by Western blotting analysis; type: functional, cell-based; details: dose 0.1-1 µM

T1 sequence (P49759 whole entry, looked up): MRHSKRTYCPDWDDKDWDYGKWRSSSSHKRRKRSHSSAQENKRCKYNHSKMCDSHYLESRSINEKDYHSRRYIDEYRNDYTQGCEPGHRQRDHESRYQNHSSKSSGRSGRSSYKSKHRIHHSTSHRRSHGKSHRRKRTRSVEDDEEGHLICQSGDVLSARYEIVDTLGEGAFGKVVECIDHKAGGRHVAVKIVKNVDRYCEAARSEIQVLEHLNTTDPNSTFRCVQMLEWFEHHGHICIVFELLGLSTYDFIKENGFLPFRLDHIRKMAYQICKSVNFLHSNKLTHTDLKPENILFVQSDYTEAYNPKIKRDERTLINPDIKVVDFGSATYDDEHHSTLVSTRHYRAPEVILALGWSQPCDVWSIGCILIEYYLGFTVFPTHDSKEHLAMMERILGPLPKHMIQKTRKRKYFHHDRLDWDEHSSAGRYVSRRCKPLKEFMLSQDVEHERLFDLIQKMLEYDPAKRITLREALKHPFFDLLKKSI
Chain of Dual specificity protein kinase CLK4 (Q9HAZ1 whole entry): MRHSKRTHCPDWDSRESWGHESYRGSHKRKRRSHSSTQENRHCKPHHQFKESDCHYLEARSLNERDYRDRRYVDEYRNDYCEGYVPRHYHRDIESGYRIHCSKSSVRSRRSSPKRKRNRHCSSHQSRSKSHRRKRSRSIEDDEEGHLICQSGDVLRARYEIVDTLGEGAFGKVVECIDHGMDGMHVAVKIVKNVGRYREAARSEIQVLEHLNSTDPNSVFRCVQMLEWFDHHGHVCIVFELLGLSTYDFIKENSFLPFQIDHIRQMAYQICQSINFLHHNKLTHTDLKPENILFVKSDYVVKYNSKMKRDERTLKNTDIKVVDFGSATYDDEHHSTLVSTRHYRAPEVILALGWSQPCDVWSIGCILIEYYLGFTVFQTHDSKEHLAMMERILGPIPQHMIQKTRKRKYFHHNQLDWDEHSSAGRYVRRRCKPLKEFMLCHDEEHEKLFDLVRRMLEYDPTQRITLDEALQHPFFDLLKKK

Compound: FC1(F)CCN(Cc2cncc(-c3ccc4[nH]nc(-c5nc(-c6ccco6)c(-c6ccco6)[nH]5)c4c3)c2)C1
- Activity (NCI-H1299 [1]): 5.16%
- inhibition [2]: Active; Showed Stronger Inhibition Compared To Indazole 1
- Activity (NCI-H1299 [3]): Active
- inhibition (NCI-H1299 [4]): Active
- Activity (NCI-H1299 [5]): 9.75%
- Activity (NCI-H1299 [6]): 5.23%
- inhibition (NCI-H1299 [7]): Active
- Activity (NCI-H1299 [8]): Active
- viability at 0.5 µM (NCI-H1299 [9]): 85.7%
- Activity (NCI-H1299 [10]): 0.89%
- inhibition [11]: Active; Showed Stronger Inhibition Compared To Indazole 1
- Activity (NCI-H1299 [12]): 0.74%
- pIC50 [13]: 6.62
- pIC50 [14]: 8.14
- viability at 0.1 µM (NCI-H1299 [15]): 96.2%
- Activity (NCI-H1299 [16]): Active
